Test results reported in patent US10858335B2 (Rigel Pharmaceuticals, Inc., priority 2014, dated 2020).

Test system: GDF8 signaling (p-SMAD-3 (Ser423/425))
Assay: AlphaScreen SureFire SMAD3 (p-Ser423/425) assay, GDF8-stimulated cells (GDF pSMAD)
Assay type: cell-based
Details: Mus musculus, MPC-11, GDF8-stimulated pSMAD3, MPC11; tested as the salt form given; read-out: GDF pSMAD (MPC11) (μM), inhibition of GDF8 signaling

IC50 [µM] | SMILES
0.486 | COc1cnc(-c2cc(Cl)ccc2F)c(-c2ccc3ncnc(N)c3c2)c1 [compound 993, 6-(2-(5-chloro-2-fluorophenyl)-5-methoxypyridin-3-yl)quinazolin-4-amine]
0.577 | Cc1ccc(C(F)F)cc1-c1ncccc1-c1ccc2ncnc(N)c2c1 [compound 1024, 6-(2-(5-(difluoromethyl)-2-methylphenyl)pyridin-3-yl)quinazolin-4-amine]
7.43 | Cc1cc(F)c(O)cc1-c1ncccc1-c1ccc2ncnc(N)c2c1 [compound 1019]
0.0958 | Nc1ncnc2ccc(-c3cccnc3-c3cc(C(F)F)ccc3F)cc12 [compound 1023, 6-(2-(5-(difluoromethyl)-2-fluorophenyl)pyridin-3-yl)quinazolin-4-amine]
2.61 | Cc1cc(-c2ncccc2-c2ccc3ncnc(NCCC(N)=O)c3c2)ccc1F [compound 1029, 3-((6-(2-(4-fluoro-3-methylphenyl)pyridin-3-yl)quinazolin-4-yl)amino)propanamide]

Same assay, conditions: Mus musculus, MPC-11, MPC11; GDF8-stimulated; p-SMAD3 AlphaScreen; read-out: GDF pSMAD (MPC11) (inhibition of GDF8 signaling)

IC50 [µM] | SMILES
0.129 | N#Cc1cnc2ccc(-c3cccnc3-c3cc(Cl)ccc3F)nn12 [compound 950, 6-(2-(5-Chloro-2-fluorophenyl)pyridin-3-yl)imidazo[1,2-b]pyridazine-3-carbonitrile]
0.189 | Cc1cc(-c2ncc(NCc3ccc(O)c(O)c3)cc2-c2ccc3ncsc3c2)ccc1F [compound 368, 4-(((5-(Benzo[d]thiazol-6-yl)-6-(4-fluoro-3-methylphenyl)pyridin-3-yl)amino)methyl)benzene-1,2-diol]
1.86 | Cc1cc(-c2ncccc2-c2ccc3ncc(C(=O)NC4CCOCC4)n3c2)ccc1F [compound 593, 6-(2-(4-Fluoro-3-methylphenyl)pyridin-3-yl)-N-(tetrahydro-2H-pyran-4-yl)imidazo[1,2-a]pyridine-3-carboxamide]
6.33 | Fc1ccc(-c2ncccc2-c2cnc3[nH]ncc3c2)cc1 [Compound 80, 5-(2-(4-Fluorophenyl)pyridin-3-yl)-1H-pyrazolo[3,4-b]pyridine]
3.69 | COc1cc(NC(=O)c2cnc3ccc(-c4cccnc4-c4cccc(C(F)(F)F)c4)cn23)cc(OC)c1OC [compound 576, 6-(2-(3-(Trifluoromethyl)phenyl)pyridin-3-yl)-N-(3,4,5-trimethoxyphenyl)imidazo[1,2-a]pyridine-3-carboxamide]
0.39 | Cc1cc(-c2ncccc2-c2ccc3nc(F)cn3c2)ccc1F [compound 254, 2-Fluoro-6-(2-(4-fluoro-3-methylphenyl)pyridin-3-yl)imidazo[1,2-a]pyridine]
1.26 | Cc1cc(-c2ncc(NCc3ccncc3)cc2-c2ccc3nccnc3c2)ccc1F [compound 245, 6-(4-Fluoro-3-methylphenyl)-N-(pyridin-4-ylmethyl)-5-(quinoxalin-6-yl)pyridin-3-amine]
1.16 | Nc1ncnc2ccc(-c3cccnc3-c3ccc(F)cc3F)cc12 [compound 455, 6-(2-(2,4-Difluorophenyl)pyridin-3-yl)quinazolin-4-amine]
0.608 | Cc1cnc(-c2cc(Cl)c(F)cc2F)c(-c2ccn3ncnc3c2)c1 [compound 865, 7-(2-(5-Chloro-2,4-difluorophenyl)-5-methylpyridin-3-yl)-[l 1,2,4]triazolo[1,5-a]pyridine]
0.129 | FC(F)Oc1cccc(-c2ncccc2-c2ccc3ncsc3c2)c1 [compound 961, 6-(2-(3-(Difluoromethoxy)phenyl)pyridin-3-yl)benzo[d]thiazole]
0.965 | COc1cc(CNc2cnc(-c3ccc(F)c(C)c3)c(-c3ccc4ncsc4c3)c2)ccc1OCCO [compound 356, 2-(4-(((5-(Benzo[d]thiazol-6-yl)-6-(4-fluoro-3-methylphenyl)pyridin-3-yl)amino)methyl)-2-methoxyphenoxy)ethan-1-ol]
4.06 | Cc1cccc(-c2ncccc2-c2ccc3ncc(N(C)C)n3c2)c1 [compound 552, N,N-Dimethyl-6-(2-(m-tolyl)pyridin-3-yl)imidazo[1,2-a]pyridin-3-amine]
18.2 | Cc1cc(-c2ncccc2-c2ccc3ccncc3c2)ccc1F [Compound 209, 7-(2-(4-Fluoro-3-methylphenyl)pyridin-3-yl)isoquinoline]
0.853 | COc1cc(NC(=O)c2cnc3ccc(-c4cccnc4-c4cccc(C)c4)cn23)cc(OC)c1OC [compound 574, 6-(2-(m-Tolyl)pyridin-3-yl)-N-(3,4,5-trimethoxyphenyl)imidazo[1,2-a]pyridine-3-carboxamide]
1.56 | COc1cc(-c2ncccc2-c2cnc3[nH]ncc3c2)ccc1F [Compound 157, 5-(2-(4-Fluoro-3-methoxyphenyl)pyridin-3-yl)-1H-pyrazolo[3,4-b]pyridine]
2.47 | COc1ccc(Nc2ncnc3ccc(-c4cccnc4-c4ccc(F)c(C)c4)cc23)cc1 [compound 407, 6-(2-(4-Fluoro-3-methylphenyl)pyridin-3-yl)-N-(4-methoxyphenyl)quinazolin-4-amine]
11.1 | NC(=O)c1ccnc2ccc(-c3cccnc3-c3cccc(Cl)c3)cc12 [compound 848, 6-(2-(3-Chlorophenyl)pyridin-3-yl)quinoline-4-carboxamide]
1.82 | Fc1ccc(Cl)cc1-c1ncccc1-c1ccc2nccnc2n1 [compound 742, 6-(2-(5-Chloro-2-fluorophenyl)pyridin-3-yl)pyrido[2,3-b]pyrazine]
0.822 | N#Cc1cnc2ccc(-c3cccnc3-c3cc(Cl)c(F)cc3F)cn12 [compound 720, 6-(2-(5-Chloro-2,4-difluorophenyl)pyridin-3-yl)imidazo[1,2-a]pyridine-3-carbonitrile]

IC50 [µM] | SMILES
10.8 | Cc1cc(-c2ncccc2-c2ccc3ncc(C(=O)N[C@@H]4CCCC[C@H]4N)n3c2)ccc1F [compound 679, N-((1R,2R)-2-Aminocyclohexyl)-6-(2-(4-fluoro-3-methylphenyl)pyridin-3-yl)imidazo[1,2-a]pyridine-3-carboxamide]
0.306 | Cc1cc(-c2ncc(NCc3cnc4c(c3)ncn4C)cc2-c2ccc3ncsc3c2)ccc1F [compound 335, 5-(Benzo[d]thiazol-6-yl)-6-(4-fluoro-3-methylphenyl)-N-((3-methyl-3H-imidazo[4,5-b]pyridin-6-yl)methyl)pyridin-3-amine]
23.1 | CCOc1cnc(-c2ccc(F)c(F)c2)c(-c2ccc3[nH]ncc3c2)c1 [Compound 7, 5-(5-Ethoxy-2-(3,4-difluorophenyl)pyridin-3-yl)-1H-indazole]
0.0639 | CN1CCC(NC(=O)c2cnc3ccc(-c4cccnc4-c4cc(Cl)ccc4F)cn23)CC1 [compound 722, 6-(2-(5-Chloro-2-fluorophenyl)pyridin-3-yl)-N-(1-methylpiperidin-4-yl)imidazo[1,2-a]pyridine-3-carboxamide]
0.224 | COc1cccc(-c2ncccc2-c2cnc3[nH]ncc3c2)c1 [Compound 155, 5-(2-(3-Methoxyphenyl)pyridin-3-yl)-1H-pyrazolo[3,4-b]pyridine]
1.19 | COc1cccc(-c2ncccc2-c2cnc3cn[nH]c3c2)c1 [Compound 142, 6-(2-(3-Methoxyphenyl)pyridin-3-yl)-1H-pyrazolo[4,3-b]pyridine]
0.227 | Cc1cnc2ccc(-c3cccnc3-c3cc(Cl)ccc3F)cn12 [compound 767, 6-(2-(5-Chloro-2-fluorophenyl)pyridin-3-yl)-3-methylimidazo[1,2-a]pyridine]
0.119 | Nc1ncnc2ccc(-c3cccnc3-c3ccc(F)c(Cl)c3)cc12 [compound 394, 6-(2-(3-Chloro-4-fluorophenyl)pyridin-3-yl)quinazolin-4-amine]
4.06 | Cc1cc(-c2ncc(NC(C)C)cc2-c2ccc3nccnc3c2)ccc1F [compound 241, 6-(4-Fluoro-3-methylphenyl)-N-isopropyl-5-(quinoxalin-6-yl)pyridin-3-amine]
1.49 | Cc1cc(-c2ncccc2-c2ccnc(Nc3cccc(N4CCOCC4)c3)n2)ccc1F [compound 905, 4-(2-(4-Fluoro-3-methylphenyl)pyridin-3-yl)-N-(3-morpholinophenyl)pyrimidin-2-amine]
0.102 | CN1CCC(NC(=O)c2cnc3ccc(-c4cccnc4-c4cc(Cl)c(F)cc4F)cn23)CC1 [compound 723, 6-(2-(5-Chloro-2,4-difluorophenyl)pyridin-3-yl)-N-(1-methylpiperidin-4-yl)imidazo[1,2-a]pyridine-3-carboxamide]
0.764 | Cc1cc(-c2ncc(NCc3cccc4cccnc34)cc2-c2ccc3ncsc3c2)ccc1F [compound 336, 5-(Benzo[d]thiazol-6-yl)-6-(4-fluoro-3-methylphenyl)-N-(quinolin-8-ylmethyl)pyridin-3-amine]
0.879 | Nc1n[nH]c2cc(-c3cccnc3-c3ccc(F)c(Cl)c3)ccc12 [compound 800, 6-(2-(3-Chloro-4-fluorophenyl)pyridin-3-yl)-1H-indazol-3-amine]
5.2 | c1cc(-c2ncccc2-c2ccc3ncc(N4CCCC4)n3c2)cc(C2CC2)c1 [compound 563, 6-(2-(3-Cyclopropylphenyl)pyridin-3-yl)-3-(pyrrolidin-1-yl)imidazo[1,2-a]pyridine]
0.243 | c1cc(-c2ncccc2-c2ccc3nccn3c2)cc(C2CC2)c1 [Compound 193, 6-(2-(3-Cyclopropylphenyl)pyridin-3-yl)H-imidazo[1,2-a]pyridine]
7.45 | Cc1cc(-c2ncc(NC3CCN(C)CC3)cc2-c2ccc3nccnc3c2)ccc1F [compound 240, 6-(4-Fluoro-3-methylphenyl)-N-(1-methylpiperidin-4-yl)-5-(quinoxalin-6-yl)pyridin-3-amine]
0.661 | Fc1ccc(-c2ncccc2-c2ccc3ncnn3n2)cc1Cl [compound 953, 6-(2-(3-Chloro-4-fluorophenyl)pyridin-3-yl)-[1,2,4]triazolo[1,5-b]pyridazine]
9.22 | Nc1ncnc2ccc(-c3cccnc3-c3ccccc3Cl)cc12 [compound 497, 6-(2-(2-Chlorophenyl)pyridin-3-yl)quinazolin-4-amine]
1.18 | Cc1cccc(-c2ncccc2-c2cc3cn[nH]c3cc2C)c1 [Compound 174, 6-Methyl-5-(2-m-tolylpyridin-3-yl)-1H-indazole]
